The results in this text go back to publication PMC8944975, “Secretin Receptor as a Target in Gastrointestinal Cancer: Expression Analysis and Ligand Development” (Biomedicines, 2022).

This experiment addresses human SCTR (Homo sapiens, UniProt P47872). The experiment can be described thus: agonist-induced β-arr2-GFP translocation. The format is cell-based. Set-up: expressed in transfected cells; host or cells: U2OS (human osteosarcoma), stably co-transfected with β-arrestin2-GFP. The settings on record: Supplementary Tables S1 and S2, decimal comma, '-' not detectable (Figure 4); for β-arrestin2-GFP agonism efficacy: % of wild-type secretin; for EC50: U2OS-SCTR/β-arr2-GFP cells, 20 min at 37 °C, mean of at least three independent experiments in duplicates, read-out: β-arrestin2-GFP agonism potency. From the text: U2OS-SCTR/β-arr2-GFP: human osteosarcoma cell line U2OS (purchased from ATCC/LGC Standards, Wesel, Germany) were stably transfected with plasmids encoding SCTR (Homo sapiens) and the fusion protein β-arrestin2-green fluorescent protein (GFP) (Rattus norvegicus-Aequorea victoria) (β-arr2-GFP).
To evaluate reactivity of human SCTR exposed to different ligand variants, intracellular translocation of a fusion protein of β-arrestin2 and green fluorescent protein was utilized. For evaluation of activation, receptor-mediated recruitment of cytoplasmic β-arr2-GFP was monitored through its translocation into condensed intracellular vesicles. The extent of translocation events was quantified by determining the increasing granularization of the intracellular fluorescence utilizing an automated high-throughput microscope in combination with computational algorithms to estimate potency (EC50) and efficacy, thus characterizing ligand-SCTR interaction. U2OS-SCTR/β-arr2-GFP cells were seeded in 96-well cell culture plates to 60–80% confluence. On the following day, preceding stimulation, cells were incubated for one hour in serum-free medium. Ligand variants were applied as serial dilutions in assay buffer C1. After preincubation, supernatant was discarded by tapping plates overhead repeatedly. For stimulation, 50 µL of ligand dilution was applied per well in duplicates and incubated for 20 min at 37 °C. Successively, cells were fixed by applying 4% buffered formaldehyde (Herbeta Arzneimittel, Berlin, Germany) for 10 min at room temperature and consecutively permeabilized for 10 min at room temperature with 0.1% TritonX-100 in PBS, containing DAPI (4′,6-Diamidin-2-phenylindol, SigmaAldrich, Deisenhofen, Germany, 1 µg/mL) to counterstain nuclei. Microscopic images were recorded by an IN Cell Analyzer 1000 (GE Healthcare, Reading, UK) with 20× magnification at 5 frames per well in a 96-well format. Image processing was performed with IN Cell Investigator software (GE Healthcare, Reading, UK), applying the provided granularity algorithm. The output of the analysis was indicated as vesicle area/cell and was utilized for calculation of concentration–response curves. Parameters derived from curve fitting included the concentration of half-maximal activity (EC50), and intrinsic activity. Intrinsic activity was normalized defining reaction to non-modified wild type secretin as the 100% curve maximum value.

human SCTR, sequence (P47872 23-440): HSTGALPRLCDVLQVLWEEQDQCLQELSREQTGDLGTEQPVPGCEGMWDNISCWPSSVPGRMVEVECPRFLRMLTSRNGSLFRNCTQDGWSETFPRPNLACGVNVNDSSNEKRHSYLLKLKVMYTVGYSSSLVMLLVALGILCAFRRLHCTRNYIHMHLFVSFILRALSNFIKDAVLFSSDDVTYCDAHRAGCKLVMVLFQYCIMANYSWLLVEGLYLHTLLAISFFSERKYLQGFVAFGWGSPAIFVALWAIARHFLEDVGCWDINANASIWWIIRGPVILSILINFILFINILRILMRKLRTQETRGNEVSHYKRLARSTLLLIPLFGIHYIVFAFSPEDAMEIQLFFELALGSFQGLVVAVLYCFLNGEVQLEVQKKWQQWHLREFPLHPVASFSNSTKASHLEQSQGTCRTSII

For `CC(C)C[C@H](NC(=O)CNC(=O)[C@H](CCC(N)=O)NC(=O)[C@H](CC(C)C)NC(=O)[C@H](CC(C)C)NC(=O)[C@H](CCCNC(=N)N)NC(=O)[C@H](CCC(=O)O)NC(=O)[C@H](CC(C)C)NC(=O)[C@H](CCCNC(=N)N)NC(=O)[C@H](C)NC(=O)CNC(=O)[C@H](CCC(=O)O)NC(=O)[C@H](CCCNC(=N)N)NC(=O)[C@H](CC(C)C)NC(=O)[C@H](CCCNC(=N)N)NC(=O)[C@H](CO)NC(=O)[C@H](CC(C)C)NC(=O)[C@H](CCC(=O)O)NC(=O)[C@H](CO)NC(=O)[C@@H](NC(=O)[C@H](Cc1ccccc1)NC(=O)[C@@H](NC(=O)CNC(=O)[C@H](CC(=O)O)NC(=O)[C@H](CO)NC(=O)[C@@H](N)Cc1c[nH]cn1)[C@@H](C)O)[C@@H](C)O)C(=O)N[C@H](C(=O)O)C(C)C` [Peptide 71], the β-arrestin2-GFP agonism efficacy was 100,73 % Sec and the EC50 stood at 2.28 nM.

With `CC(C)C[C@H](NC(=O)CNC(=O)[C@H](CCC(N)=O)NC(=O)[C@H](CC(C)C)NC(=O)[C@H](CC(C)C)NC(=O)[C@H](CCCNC(=N)N)NC(=O)[C@H](CCC(N)=O)NC(=O)[C@H](CC(C)C)NC(=O)[C@H](CCCNC(=N)N)NC(=O)[C@H](C)NC(=O)[C@H](CC(C)C)NC(=O)[C@H](CCC(=O)O)NC(=O)[C@H](CCCNC(=N)N)NC(=O)[C@H](CC(C)C)NC(=O)[C@H](CCCNC(=N)N)NC(=O)[C@H](CO)NC(=O)[C@H](CC(C)C)NC(=O)[C@H](CCC(=O)O)NC(=O)[C@H](CO)NC(=O)[C@@H](NC(=O)[C@H](Cc1ccccc1)NC(=O)[C@@H](NC(=O)CNC(=O)[C@H](CC(=O)O)NC(=O)[C@H](CO)NC(=O)[C@@H](N)Cc1c[nH]cn1)[C@@H](C)O)[C@@H](C)O)C(=O)N[C@H](C(=O)O)C(C)C` [Peptide 72], the β-arrestin2-GFP agonism efficacy is on record as 104,60 % Sec and the EC50 turned out to be 3.32 nM.

In the case of `CC(C)C[C@H](NC(=O)CNC(=O)[C@H](CCC(N)=O)NC(=O)[C@H](CC(C)C)NC(=O)[C@H](CC(C)C)NC(=O)[C@H](CCCNC(=N)N)NC(=O)[C@H](CCC(N)=O)NC(=O)[C@H](CC(C)C)NC(=O)[C@H](CCCNC(=N)N)NC(=O)[C@H](C)NC(=O)CNC(=O)[C@H](CCC(=O)O)NC(=O)[C@H](CCCNC(=N)N)NC(=O)[C@H](CC(C)C)NC(=O)[C@H](CCCNC(=N)N)NC(=O)[C@H](CO)NC(=O)[C@H](CC(C)C)NC(=O)[C@H](CCC(=O)O)NC(=O)[C@H](CO)NC(=O)[C@@H](NC(=O)[C@H](Cc1ccccc1)NC(=O)[C@@H](NC(=O)CNC(=O)[C@H](CC(=O)O)NC(=O)[C@H](CO)NC(=O)[C@@H]1CCCN1)[C@@H](C)O)[C@@H](C)O)C(=O)N[C@H](C(=O)O)C(C)C` [Peptide 73], the β-arrestin2-GFP agonism efficacy is 96,57 % Sec and the EC50 worked out at 39.1 nM.

As to `CC(C)C[C@H](NC(=O)CNC(=O)[C@H](CCC(N)=O)NC(=O)[C@H](CC(C)C)NC(=O)[C@H](CC(C)C)NC(=O)[C@H](CCCNC(=N)N)NC(=O)[C@H](CCC(N)=O)NC(=O)[C@H](CC(C)C)NC(=O)[C@H](CCCNC(=N)N)NC(=O)[C@H](C)NC(=O)CNC(=O)[C@H](CCC(=O)O)NC(=O)[C@H](CCCNC(=N)N)NC(=O)[C@H](CC(C)C)NC(=O)[C@H](CCCNC(=N)N)NC(=O)[C@H](CO)NC(=O)[C@H](CC(C)C)NC(=O)[C@H](CCC(=O)O)NC(=O)[C@H](CO)NC(=O)[C@@H](NC(=O)[C@H](Cc1ccccc1)NC(=O)[C@@H](NC(=O)CNC(=O)[C@H](CC(=O)O)NC(=O)[C@@H]1CCCN1C(=O)[C@@H](N)Cc1c[nH]cn1)[C@@H](C)O)[C@@H](C)O)C(=O)N[C@H](C(=O)O)C(C)C` [Peptide 74], the β-arrestin2-GFP agonism efficacy is 106,23 % Sec and the EC50 amounted to 3.37 nM.

As for `CC(C)C[C@H](NC(=O)[C@H](CCCNC(=N)N)NC(=O)[C@H](C)NC(=O)CNC(=O)[C@H](CCC(=O)O)NC(=O)[C@H](CCCNC(=N)N)NC(=O)[C@H](CC(C)C)NC(=O)[C@H](CCCNC(=N)N)NC(=O)[C@H](CO)NC(=O)[C@H](CC(C)C)NC(=O)[C@H](CCC(=O)O)NC(=O)[C@H](CO)NC(=O)[C@@H](NC(=O)[C@H](Cc1ccccc1)NC(=O)[C@@H](NC(=O)CNC(=O)[C@H](CC(=O)O)NC(=O)[C@H](CO)NC(=O)[C@@H](N)Cc1c[nH]cn1)[C@@H](C)O)[C@@H](C)O)C(=O)N[C@@H](CCC(N)=O)C(=O)N[C@@H](CCCNC(=N)N)C(=O)N[C@@H](CC(C)C)C(=O)N[C@@H](CC(C)C)C(=O)N[C@@H](CCC(N)=O)C(=O)N1CCC[C@H]1C(=O)N[C@@H](CC(C)C)C(=O)N[C@H](C(=O)O)C(C)C` [Peptide 83], the β-arrestin2-GFP agonism efficacy was 103,17 % Sec and the EC50 came to 22.1 nM.

Take `CC(C)C[C@H](NC(=O)[C@H](CCCNC(=N)N)NC(=O)[C@H](C)NC(=O)CNC(=O)[C@H](CCC(=O)O)NC(=O)[C@H](CCCNC(=N)N)NC(=O)[C@H](CC(C)C)NC(=O)[C@H](CCCNC(=N)N)NC(=O)[C@H](CO)NC(=O)[C@H](CC(C)C)NC(=O)[C@H](CCC(=O)O)NC(=O)[C@H](CO)NC(=O)[C@@H](NC(=O)[C@H](Cc1ccccc1)NC(=O)[C@@H](NC(=O)CNC(=O)[C@H](CC(=O)O)NC(=O)[C@H](CO)NC(=O)[C@@H](N)Cc1c[nH]cn1)[C@@H](C)O)[C@@H](C)O)C(=O)N[C@@H](CCC(N)=O)C(=O)N[C@@H](CCCNC(=N)N)C(=O)N[C@@H](CC(C)C)C(=O)N[C@@H](CC(C)C)C(=O)N[C@@H](CCC(N)=O)C(=O)NCC(=O)N1CCC[C@H]1C(=O)N[C@H](C(=O)O)C(C)C` [Peptide 84]: the β-arrestin2-GFP agonism efficacy is listed as 95,03 % Sec and the EC50 turned out to be 72.6 nM.

In the case of `CC(C)C[C@H](NC(=O)[C@H](CCCNC(=N)N)NC(=O)[C@H](C)NC(=O)CNC(=O)[C@H](CCC(=O)O)NC(=O)[C@H](CCCNC(=N)N)NC(=O)[C@H](CC(C)C)NC(=O)[C@H](CCCNC(=N)N)NC(=O)[C@H](CO)NC(=O)[C@H](CC(C)C)NC(=O)[C@H](CCC(=O)O)NC(=O)[C@H](CO)NC(=O)[C@@H](NC(=O)[C@H](Cc1ccccc1)NC(=O)[C@@H](NC(=O)CNC(=O)[C@H](CC(=O)O)NC(=O)[C@H](CO)NC(=O)[C@@H](N)Cc1c[nH]cn1)[C@@H](C)O)[C@@H](C)O)C(=O)N[C@@H](CCC(N)=O)C(=O)N[C@@H](CCCNC(=N)N)C(=O)N[C@@H](CC(C)C)C(=O)N[C@@H](CC(C)C)C(=O)N[C@@H](CCC(N)=O)C(=O)NCC(=O)N[C@@H](CC(C)C)C(=O)N1CCC[C@H]1C(=O)O` [Peptide 85], the β-arrestin2-GFP agonism efficacy was 100,47 % Sec and the EC50 amounted to 5.19 nM.

For `CC(C)C[C@H](NC(=O)CNC(=O)[C@H](CCC(N)=O)NC(=O)[C@H](CC(C)C)NC(=O)[C@H](CC(C)C)NC(=O)[C@H](CCCNC(=N)N)NC(=O)[C@H](CCC(N)=O)NC(=O)[C@H](CC(C)C)NC(=O)[C@H](CCCNC(=N)N)NC(=O)[C@H](C)NC(=O)CNC(=O)[C@H](CCC(=O)O)NC(=O)[C@H](CCCNC(=N)N)NC(=O)[C@H](CC(C)C)NC(=O)[C@H](CCCNC(=N)N)NC(=O)[C@H](CO)NC(=O)[C@H](CC(C)C)NC(=O)[C@H](CCC(=O)O)NC(=O)[C@H](CO)NC(=O)[C@@H](NC(=O)[C@H](Cc1ccccc1)NC(=O)[C@@H](NC(=O)CNC(=O)[C@H](CC(=O)O)NC(=O)[C@H](CO)NC(=O)[C@H](N)Cc1c[nH]cn1)[C@@H](C)O)[C@@H](C)O)C(=O)N[C@H](C(=O)O)C(C)C` [Peptide 86], the β-arrestin2-GFP agonism efficacy is 107,20 % Sec.
